# Earlier results, collected in patent US12539302B2, “Methods and compositions for the treatment of hair loss” (Aneira Pharma, Inc., priority 2019, dated 2026).
# Where two headings read alike, the source gives them in different places.
# Tests used:
# human FP receptors [1] = molecular target: T1, human FP receptors (Homo sapiens, UniProt P43088)
# human FP receptors [2] = molecular target: T1, human FP receptors; conditions: FP receptor agonist
# hair growth [3] = conditions: McCarey et al. 2004
# [4] = test system: elevated intraocular pressure; conditions: patients non-responsive to latanoprost, Gandolfi 2003
# [5] = test system: elevated intraocular pressure model of glaucoma; conditions: Gagliuso et al. 2004
# [6] = test system: dihydrotestosterone (DHT) production; conditions: oral; including prostate gland and scalp
# [7] = propylene glycol, methanol, ethanol and 2-propanol
# hair growth [8] = test system: hair growth
# T1 sequence (P43088 whole entry): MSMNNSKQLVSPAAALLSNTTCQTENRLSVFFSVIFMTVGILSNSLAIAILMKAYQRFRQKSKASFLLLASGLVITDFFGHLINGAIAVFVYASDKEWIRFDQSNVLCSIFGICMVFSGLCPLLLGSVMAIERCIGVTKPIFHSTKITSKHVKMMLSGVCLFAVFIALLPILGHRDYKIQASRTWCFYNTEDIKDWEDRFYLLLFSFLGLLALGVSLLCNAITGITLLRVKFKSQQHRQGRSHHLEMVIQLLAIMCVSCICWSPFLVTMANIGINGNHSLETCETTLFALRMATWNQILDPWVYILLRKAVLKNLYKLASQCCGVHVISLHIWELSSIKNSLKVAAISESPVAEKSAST
structure (smiles),measurement,setting,value
"O=C(O)CCC/C=C\C[C@@H]1[C@@H](CC[C@@H](O)CCc2ccccc2)[C@H](O)C[C@@H]1O [Latanoprost free acid, Latanoprost acid]",potency as FP receptor ligand relative to latanoprost,human FP receptors [1],two-hundred times more potent
same,potency relative to PGF2α,human FP receptors [2],twice the potency
"CCCCCCCC(=O)CC[C@@H]1[C@@H](C/C=C\CCCC(=O)OC(C)C)[C@@H](O)C[C@H]1O [Uenoprostone isopropyl ester, Unoprostone isopropyl ester]",hair growth,hair growth [3],cause no hair growth
"CCNC(=O)CCC/C=C\C[C@@H]1[C@@H](/C=C/[C@@H](O)CCc2ccccc2)[C@H](O)C[C@@H]1O [bimatoprost, Bimatoprost]",response in reducing elevated intraocular pressure,[4],responsive
same,effect on elevated intraocular pressure in combination,[5],additive to that of latanoprost
"CC(C)(C)NC(=O)[C@H]1CC[C@H]2[C@@H]3CC[C@H]4NC(=O)C=C[C@]4(C)[C@H]3CC[C@]12C [finasteride, (1S,3aS,3bS,5aR,9aR,9bS,11aS)-N-tert-butyl-9a,11a-dimethyl-7-oxo-1,2,3,3a,3b,4,5,5a,6,9b,10,11-dodecahydroindeno[5,4-f]quinoline-1-carboxamide]",decrease of DHT production,[6],about 70%
"CC(C)OC(=O)CCC/C=C\C[C@@H]1[C@@H](CC[C@@H](O)CCc2ccccc2)[C@H](O)C[C@@H]1O [latanoprost, Latanoprost]",time stable,acidic or basic aqueous solutions,no more than 48 hours
same,time stable,"neutral aqueous solutions, room temperature",stable for up to one month
same,"solubility, highest concentration that can be used",[7],≥ 5%
Nc1cc(N2CCCCC2)nc(N)[n+]1OS(=O)(=O)[O-] [minoxidil sulphate],potency as hair growth agent compared to minoxidil,hair growth [8],much more potent
CCCCCCCC(=O)CC[C@@H]1[C@@H](C/C=C\CCCC(=O)O)[C@@H](O)C[C@H]1O [uenoprostone free acid],hair growth,hair growth [3],cause no hair growth
